A value given as a limit tells only on which side of the number the result lay.

For orientation: melting point means the temperature, or range, at which the solid turns liquid. Molecule `CC(SC1COC(c2ccc(C(=O)Nc3ccc(CC#N)cc3)cc2)OC1)C(O)(Cn1cncn1)c1ccc(F)cc1F` (stereo not given) came in with a melting point of 188 °C.
In turn, `CCCCCCCCCCCCCCCCCCOc1ccc(C(=O)O)o1` showed a melting point of 117 to 118 °C.
For `Cc1ncoc1C(=O)Nc1ccc(-n2nc(C(F)(F)F)cc2C2CC2)c(F)c1`, the melting point fell in the range of 148 to 150 °C.
In turn, `Cc1c(OCCCOc2cc(C(C)(C)C)c(O)c(C(C)(C)C)c2C)cc(C(C)(C)C)c(O)c1C(C)(C)C` had a melting point of 120 °C.
Turning to `C=Cc1c(N)nc(-c2ccc(Cl)c(OC)c2F)nc1C(=O)OCc1ccccc1`, the melting point lay in the range of 119 to 121 °C.
As for `CCOC(=O)Cn1cc(Cc2nc3c(F)c(F)cc(F)c3s2)c2ccccc21`, the melting point fell in the range of 110 to 111 °C.
Molecule `CCOC(=O)c1c(OC)c([N+](=O)[O-])cn1C` gave a melting point of 145 to 147 °C.
The molecule `CCOC(=O)c1c(Cn2cncn2)nc2sc3ccncc3c2c1-c1ccc(OC)c(OC)c1` displayed a melting point of 166 to 167 °C.
Under `CNC1Oc2cc(Cl)cc(-c3ccc(Cl)cc3C)c2O1` (stereo not given) stands more than 250 °C.
Regarding `O=C1CCCN1c1ccc2c(c1)OCO2`, the melting point lay in the range of 89 to 91 °C.
Under `CCOC(=O)c1c(C)c(C(=O)c2ccc(SC)n2C)n2c1C(C(=O)OCC)CC2` (stereo not given) stands 142 to 143 °C; under `CCc1nn2ccc3oc(C)cc3c2c1CC#N`, 156 to 157 °C.
Consider `Fc1ccc(C=Nc2c3c(nc4ccccc24)CCCC3)cc1`, for which the melting point lay in the range of 161 to 163 °C.
As to `CN1CC[C@@H](c2c(O)cc(O)c3c(=O)cc(-c4ccc([N+](=O)[O-])cc4Br)oc23)[C@@H]1CO`, the melting point was 186 °C.
As to `COC(=O)c1ccc(SC)c(C(F)(F)F)c1`, the melting point fell in the range of 76 to 77 °C.
Consider `Cc1cccc(NC(=O)CN2C(=O)c3ccccc3C2=O)c1`, for which the melting point was determined as 207 °C.
As to `CN(C)C1CCc2[nH]c3cccc(Cl)c3c2C1` (stereo not given), the melting point lay within 212 to 214 °C.
The figure for `CC(C)(C)c1ccc(C=O)cc1NC(=O)CC1c2ccccc2Oc2ccccc21` is 172 to 174 °C; for `COC(=O)CCC#Cc1cc(Cl)ccc1NS(=O)(=O)c1ccc2c(c1)CCN2C(C)=O` it is 154 °C.
Regarding `CC(=O)N(C)c1c(N(C)C)cc(CC(C#N)=CNc2ccccc2)cc1N(C)C`, the melting point was 190 to 200 °C.
Molecule `CC[C@H]1CC[C@H](CCc2ccc(-c3ccc(C#N)cc3)c(F)c2)CC1` yielded a melting point of 65.4 °C.
Under `COc1cccc(-c2csc(N3CCN(C(=O)Nc4onc(C)c4C)CC3)n2)c1` stands 158 to 159 °C; under `Cc1cccc2c1NC(=O)C(CCCN1CCN(c3cccc(F)c3)CC1)S2` (stereo not given), 132 to 134 °C.
`CCCCNc1nc(C)c(C(=O)c2ccc(N)c(N)c2)s1`: the melting point lay within 127 to 130 °C.
The molecule `COC(=O)Cc1cccc(OC)c1OCCCc1cn(-c2ccc([N+](=O)[O-])cn2)nc1C(C)C` displayed a melting point of 108 to 109 °C.
Molecule `O=C1c2ccccc2C(=O)N1C[C@H]1COc2cc(Cl)ccc2O1` had a melting point of 126 to 127 °C.
Turning to `CSc1c(-c2ccccc2)[nH]c2ccccc12`, the melting point was determined as 103 °C.
Regarding `Cc1cc(C(=O)NCO)ncc1C(c1c(F)ccc(F)c1F)S(=O)(=O)c1ccc(Cl)cc1` (stereo not given), the melting point is 177 to 178 °C.
Consider `CSc1ccc(C(=N)Nc2ccc(C)cc2)cc1`, for which the melting point was in the range of 143 to 145 °C.
`CCOC(=O)C(=O)Nc1c(C)cc(C(F)(F)F)cc1[N+](=O)[O-]` had a melting point of 118 to 120 °C.
For the molecule `CN(C)NC(=O)C1(N2C(=O)c3cccc(Cl)c3C2=O)CCCCC1`, the melting point was 184 to 185 °C.
Regarding `OCCSc1c(Cl)c(Cl)c(SCCO)c(Cl)c1Cl`, the melting point fell in the range of 149 to 152 °C.
For `Cc1nn(C)c2c(Cl)nc(C3CC3)nc12`, the melting point fell in the range of 87 to 90 °C.
The molecule `Cc1c(SCCCl)ccnc1CSc1nc2ccccc2[nH]1` had a melting point of 178 to 180 °C.
The figure for `COC1(OC)CCC(O)(c2ccc(C)cc2)CC1` is 93 to 97 °C.
Under `CC(=O)COc1cc2c(c(Cl)c1Cl)C(=O)C(C)(c1ccccc1)C2` (stereo not given) stands 144 °C.
Under `Oc1ccc2c(c1)OCC(N1CCC(O)(c3ccc(F)cc3)CC1)C2O` (stereo not given) stands 159 to 160 °C; under `Nc1nc2c(sc(=O)n2C2OC(COC(=O)c3ccccc3)C(OC(=O)c3ccccc3)C2F)c(=O)[nH]1` (stereo not given), 282 to 284 °C; under `COC(=O)c1ccc(S(C)(=O)=O)c(COc2ccnn2C)c1Cl`, 70 °C.
With `CCCC12CCC3=C(CCc4cc(OC)ccc43)C1CCC2=O` (stereo not given), the melting point lay within 111 to 113 °C.
`Cc1cn2cccc(N[C@@H]3c4ccccc4C[C@H]3O)c2n1` (relative stereo) returned a melting point of 188 to 190 °C.
`CCCCNC(=O)Oc1cccc(NC(=O)NC2CC2)c1` yielded a melting point of 154 °C.
`Nc1c(-c2ccc(-c3ccc(F)cc3)cc2)nc2ccc(F)cc2c1C(=O)O`: the melting point fell in the range of 241 to 243 °C.
The molecule `Cc1cccc2c1C1(CCC(=O)NC1=O)CCC2=O` (stereo not given) displayed a melting point of 285 to 287 °C.
`CCNC1CCN(c2nc(N3CCOCC3)c3ncnc(N(C)Cc4ccccc4)c3n2)CC1` gave a melting point of 92 to 94 °C.
Consider `Nc1nc2cc3c(cc2[nH]1)OCO3`, for which the melting point is 230 to 243 °C.
With `OCc1ccn(-c2ccc(OC(F)(F)F)cc2)n1`, the melting point was 53 to 54 °C.
The molecule `CCOC(=O)c1nc(-c2ccc(OC)cc2)oc1C` showed a melting point of 74 to 76 °C.
In turn, `CC(C)[C@](C)(O)C(=O)O` showed a melting point of 47 to 49 °C.
On to `CC(C)(C)OC(=O)c1nc(-c2ccc([N+](=O)[O-])cc2)[nH]c1-c1ccncc1`, for which the melting point was more than 280 °C.
Molecule `c1ncn2nncc2n1` had a melting point of 249 to 251 °C.
In turn, `COC(=O)Cc1sc(S)nc1C` had a melting point of 139 to 140 °C.
In turn, `CCC(C)(C)c1ccc(OC(C)=O)c(C2(OC(C)=O)C(=O)c3ccccc3C2=O)c1` returned a melting point of 146 to 151 °C.
The figure for `CCCNC(=O)NNC(=O)c1ccc(OC)cc1` is 176 to 179 °C; for `O=C(NCC(F)(F)F)C1(CCCCSc2nccs2)c2ccccc2-c2ccccc21` it is 143 to 144 °C; for `Cc1c(NC(=O)c2ccc(-c3ccc(F)cc3)cc2)ccc2cc(CN3CCCC3Cc3ccccc3)cnc12` (stereo not given) it is 172 to 174 °C.
With `N#CCC1CCN(C(c2ccccc2)c2ccccc2)CC1`, the melting point lay within 103 to 104 °C.
Turning to `C=C(C)C(=O)N1c2ccccc2Sc2ccc(OC)cc21`, the melting point is 91 to 92 °C.
Under `COc1ccc(-c2c(C=O)cc(OC)c(OC)c2OC)c(C=O)c1OS(C)(=O)=O` stands 130 to 131 °C; under `CCOc1c([N+](=O)[O-])cnn1-c1c(Cl)cc(C(F)(F)F)cc1Cl`, 84 to 86 °C; under `CS(=O)c1ccc(-c2nn(Cc3ccc(Cl)cc3Cl)c(=O)cc2-c2ccc(Cl)cc2)cc1` (stereo not given), 236 to 237 °C.
Under `Cc1cc(Nc2nc(-c3ccncc3)nc3ccccc23)[nH]n1` stands 286 to 289 °C; under `N#Cc1ccc(C(=O)N=C=S)cc1`, 87.5 to 88.5 °C; under `CC(=O)c1ccc(S(=O)(=O)NCc2ccncc2)cc1`, 162 to 167 °C.
Under `COc1ccc(COc2cccc(C(=O)Nc3ccc(S(C)=O)cc3)c2)cc1` (stereo not given) stands 135 to 136 °C; under `O[C@@H]1CN=C(c2cccc(Cl)c2)O[C@H]1c1ccccc1` (racemic), 100 °C.
`COc1ccc(COC(=O)c2ccc3ccccc3c2O)cc1` yielded a melting point of 92 to 93 °C.
Under `Cc1cc(-c2ccccc2)n2ncc(C(=O)c3ccccc3)c2n1` stands 165 to 166 °C; under `CSc1nc(C(F)(F)F)c(Br)c(=O)[nH]1`, 215 to 216 °C; under `COc1ccnc(C(=O)N[C@H]2COC[C@H](CC3CCCCC3)[C@@H](OCC(C)C)[C@H](C)OC2=O)c1O`, 89 to 92 °C.
With `CCOC(=O)Nc1ccc(OCCCCl)cc1`, the melting point is 91 to 93 °C.
Molecule `Cc1cccc(NC(=O)CN2CCN(c3ccccn3)CC2)c1` displayed a melting point of 126 to 127 °C.
Turning to `Cc1ccc2c(c1)C(O)=C(C(=O)Nc1cncc(Cl)n1)N(C)S2(=O)=O`, the melting point was 296 to 298 °C.
As to `O=C(O)c1cc2cc(F)ccc2n1Cc1ccncc1`, the melting point was in the range of 282 to 283 °C.
`C=C1CSC2C(NC(=O)Cc3ccccc3)C(=O)N2C1C(=O)OC(c1ccccc1)c1ccccc1` (stereo not given) displayed a melting point of 144 to 147 °C.
In turn, `COC(=O)CCc1ccc(OCC2CN(c3ccccc3)C(=O)O2)cc1` (stereo not given) registered a melting point of 138 to 139 °C.
`Cc1cn2cccc(C=Cc3ccccc3)c2n1`: the melting point is 101 to 105 °C.
Take `NC(=O)c1ncn2c1NCC=C2c1cccc(Cl)c1`: the melting point was in the range of 182 to 184 °C.
The figure for `Cn1cnc2c(cnn2-c2ncc(C(F)(F)F)cc2Cl)c1=O` is 253 °C.
The molecule `CCOC(=O)C(C)NC(=O)CN(C(=O)c1ccc(Cl)cc1)c1c(C)cccc1C` (stereo not given) came in with a melting point of 91 to 92 °C.
As to `CCCC(CCC)n1c(CC)nc2c1c(=O)n(C)c(=O)n2-c1c(OC)ccnc1C`, the melting point was in the range of 124 to 126 °C.
For `Cc1c(C)c2c(c(C)c1O)SC(C)(c1ccccc1)O2` (stereo not given), the melting point fell in the range of 80 to 81 °C.
Under `CCn1ncc2c1ncc1c(=O)n3nccc3n(CCC(C)C)c12` stands 167 to 168 °C; under `CCSc1nc(C)n(Cc2ccc(-c3ccccc3C(=O)O)cc2)c1CO`, 250 °C.
`CNC(=O)C(C)Oc1ccc(Oc2ccc(C(F)(F)F)cc2)cc1` (stereo not given): the melting point lay in the range of 129 to 133 °C.
The figure for `CCCCNC(=O)Cc1cc(=O)oc2cc(OCc3cccc(Cl)c3)ccc12` is 112 to 113 °C; for `COc1ccc2c(c1OCc1ccccc1)CCN(C=O)C2` it is 118 °C; for `CCOC(=O)C(C)(C)Oc1ccc(CCNC(=O)C=Cc2ccccc2Cl)cc1` it is 76 °C.
`O=C(OCc1ccc(Cl)cc1)c1ncccc1OCc1ccc(Cl)cc1` yielded a melting point of 92 to 94 °C.
Turning to `CC(C)(O)[C@H](CO)NC(=O)[C@@H](CC(=O)O)n1ccc(-c2ccc(-c3ccccc3)cc2)c1`, the melting point is 150 to 152 °C.

These data come from a melting point compilation (Tetko et al.; mined from patent text by program, amines drawn as free bases though some values may be those of a salt).
